{"source": "patent US9283189B2", "about": "“Sustained-release preparation of ivabradine or pharmaceutically acceptable salts thereof” (Jiangsu Hengrui Medicine Co., Ltd., priority 2011, dated 2016)", "origin": "cited, not measured here"}
{"smiles": "COc1cc2c(cc1OC)CC(=O)N(CCCN(C)CC1Cc3cc(OC)c(OC)cc31)CC2", "note": "(centres unmarked) [Ivabradine]", "values": [{"measurement": "Angina attacks", "setting": "chronic stable angina; 5 mg and 7.5 mg twice daily, patients with chronic stable angina", "value": "significant decrease"}, {"measurement": "Influence on glucose or lipid metabolism", "setting": "chronic stable angina; human, in vivo", "value": "no influence"}, {"measurement": "Rebound effect following the withdrawal of treatment", "setting": "chronic stable angina; human, in vivo", "value": "no rebound effect"}, {"measurement": "Average plasma concentration at steady state", "setting": "5 mg twice daily, CV=38%", "value": 10, "unit": "ng/mL"}, {"measurement": "Main half-life in plasma", "setting": "70˜75% of the AUC", "value": 2, "unit": "h"}, {"measurement": "Maximum plasma concentration", "setting": "chronic administration, 5 mg twice daily, CV=29%", "value": 22, "unit": "ng/mL"}, {"measurement": "Volume of distribution at steady state", "setting": "in patients", "value": "~100", "unit": "L"}, {"measurement": "Effective half-life", "setting": "in vivo", "value": 11, "unit": "h"}, {"measurement": "Plasma protein bound", "setting": "in vivo", "value": "approximately 70%"}, {"measurement": "Renal clearance", "setting": "in vivo", "value": "approximately 70 ml/min"}, {"measurement": "Total clearance", "setting": "in vivo", "value": "about 400 ml/min"}, {"measurement": "Oral dose excreted unmetabolized in urine", "setting": "in vivo, po", "value": "About 4%"}, {"measurement": "Time to peak plasma level", "setting": "oral administration, fasting condition", "value": "about 1 hour"}, {"measurement": "Kinetics (dose proportionality)", "setting": "oral dose range of 0.5 mg˜24 mg", "value": "linear"}]}
